Assay results reported in US8957074B2 (Novartis AG, priority 2010, dated 2015).
Like-named read-outs stand apart in the source and are kept apart here.

Columns and labels:
CDK1/cyclin B = CDK1/cyclin B (Homo sapiens (Human), UniProt P06493); assay: CDK1/cyclin B enzymatic activity assay (IMAP-FP); format: biochemical; settings: […] CDK1/cyclin B, 100 nM Tamra Histone-H1 peptide, 20 μM ATP, 120 min at room temperature; read-out: Biochemical CDK1 enzyme IC50
Source text: CDK1/Cyclin B Enzymatic Activity Assay
A 384-well microtiter IMAP-FP™ (Molecular Devices Trade Mark Technology) endpoint assay was used for CDK1/cyclin B kinase activity measurements. The same assay was used for IC50 determination of small molecule inhibitors.

[1] = test system: phosphorylation of pRb at the Ser780 site in JeKo-1 mantle cell lymphoma cells; assay: CDK4 cellular assay: ELISA of pRb phosphorylation at Ser780 in JeKo-1 cells; format: cell-based; settings: JeKo-1 cells
CDK4/cyclin D1 = CDK4/cyclin D1 (Homo sapiens (Human), UniProt P11802); assay: CDK4/cyclin D1 enzymatic activity assay (TR-FRET, phosphorylation of pRb at Ser780); format: biochemical; settings: 0.3 nM CDK4/cyclin D1, 150 nM biotin-pRb (773-924), 3 μM ATP, 60 min at 22° C.; read-out: Biochemical CDK4 enzyme IC50
Sequence of CDK4/cyclin D1 (P11802 whole entry): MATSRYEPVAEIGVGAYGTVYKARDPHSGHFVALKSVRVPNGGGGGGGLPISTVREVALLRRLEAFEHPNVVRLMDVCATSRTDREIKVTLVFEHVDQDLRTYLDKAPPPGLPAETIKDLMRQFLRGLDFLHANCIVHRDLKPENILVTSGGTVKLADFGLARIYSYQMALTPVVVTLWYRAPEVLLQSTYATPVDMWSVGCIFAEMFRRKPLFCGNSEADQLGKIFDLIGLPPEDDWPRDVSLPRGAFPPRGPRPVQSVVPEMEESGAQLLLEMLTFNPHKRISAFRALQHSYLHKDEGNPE
Sequence of CDK4/cyclin D1 (P24385 whole entry partner): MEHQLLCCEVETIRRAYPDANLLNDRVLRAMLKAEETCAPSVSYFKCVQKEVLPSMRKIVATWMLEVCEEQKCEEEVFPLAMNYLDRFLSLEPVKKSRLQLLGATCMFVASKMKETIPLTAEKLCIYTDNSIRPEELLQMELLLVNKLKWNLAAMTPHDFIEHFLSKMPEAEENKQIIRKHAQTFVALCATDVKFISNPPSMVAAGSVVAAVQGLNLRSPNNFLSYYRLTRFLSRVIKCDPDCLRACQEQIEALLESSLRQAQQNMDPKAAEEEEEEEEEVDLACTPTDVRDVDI
How it was run: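 Phosphorylation at pRb Ser780, detected by TR-FRET, gave IC50s and kinetics. Enzyme: baculovirus/Sf21-expressed human CDK4/cyclin D1. ATP at 3 μM initiated the reaction; EDTA (pH 8.0) stopped it after 60 min at 22° C.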

Sequence of CDK1/cyclin B (P06493 whole entry, species assumed): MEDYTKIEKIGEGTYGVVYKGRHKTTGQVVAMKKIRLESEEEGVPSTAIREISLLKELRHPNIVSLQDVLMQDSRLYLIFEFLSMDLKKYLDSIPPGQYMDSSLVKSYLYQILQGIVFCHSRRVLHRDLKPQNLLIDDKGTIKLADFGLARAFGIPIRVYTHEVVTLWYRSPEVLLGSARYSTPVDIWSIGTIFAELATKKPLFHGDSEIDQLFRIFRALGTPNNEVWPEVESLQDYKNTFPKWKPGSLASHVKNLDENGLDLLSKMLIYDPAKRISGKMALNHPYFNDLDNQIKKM
Sequence of CDK1/cyclin B (P14635 whole entry partner, species assumed): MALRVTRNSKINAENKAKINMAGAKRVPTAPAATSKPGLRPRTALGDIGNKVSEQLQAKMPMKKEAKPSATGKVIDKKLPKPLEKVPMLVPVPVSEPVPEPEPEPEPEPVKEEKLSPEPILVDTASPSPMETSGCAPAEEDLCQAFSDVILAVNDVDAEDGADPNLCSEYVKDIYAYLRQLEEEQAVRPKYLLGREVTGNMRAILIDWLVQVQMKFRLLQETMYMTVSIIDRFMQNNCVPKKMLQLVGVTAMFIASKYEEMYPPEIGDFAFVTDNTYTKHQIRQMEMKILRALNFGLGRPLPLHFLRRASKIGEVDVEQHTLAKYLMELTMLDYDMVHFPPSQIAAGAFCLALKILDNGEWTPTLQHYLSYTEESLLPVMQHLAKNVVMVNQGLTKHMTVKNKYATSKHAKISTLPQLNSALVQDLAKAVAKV

Compound	IC50 (CDK1/cyclin B) [nM]	IC50 ([1]; p-pRb % inhibition adjusted with total pRb levels, read-out: Normalized cellular ppRb inhibition IC50) [nM]	IC50 ([1]; p-pRb Ser780 ELISA, non-normalized, read-out: Cellular ppRb inhibition IC50) [nM]	IC50 (CDK4/cyclin D1) [nM]	IC50 ([1]; Homo sapiens, p-pRb % inhibition adjusted with total pRb levels, read-out: Normalized cellular ppRb inhibition IC50) [nM]	IC50 ([1]; Homo sapiens, p-pRb Ser780 ELISA, non-normalized, read-out: Cellular ppRb inhibition IC50) [nM]
CN(C)C(=O)c1cc2cnc(Nc3ccc(N4CCC5(CCNCC5)C4=O)cn3)nc2n1C1CCCC1 [Example 117, 7-cyclopentyl-N,N-dimethyl-2-(5-(1-oxo-2,8-diazaspiro[4.5]decan-2-yl)pyridin-2-ylamino)-7H-pyrrolo[2,3-d]pyrimidine-6-carboxamide]	> 15000	51 to 82	40 to 67	7 to 9	–	–
CN(C)C(=O)c1cc2cnc(Nc3ccc(C(=O)N4CC5CCC(C4)N5)cn3)nc2n1C1CCN(C(C)(C)C)CC1 [Example 57, 7-(1-tert-Butyl-piperidin-4-yl)-2-[5-(3,8-diaza-bicyclo[3.2.1]octane-3-carbonyl)-pyridin-2-ylamino]-7H-pyrrolo[2,3-d]pyrimidine-6-carboxylic acid dimethylamide]	> 15000	–	–	1570	> 10000	> 10000
